Columns and labels:
Assay in all cases: relative viability (nuclei count vs DMSO), 5 days (fraction); higher = more cells survive
[1] = compound: CN(C)C[C@@H]1CCn2cc(c3ccccc32)C2=C(C(=O)NC2=O)c2cn(c3ccccc23)CCO1 [Ruboxistaurin]
How it was run: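 In 1536-well plates, lung cancer cell lines rested overnight at 37 °C before five library-drug doses (not always all listed), √10 apart, were pinned onto vehicle-anchored plates. Nuclei were counted with MetaXpress from 4× Hoechst images taken after 5 days without medium change. Viability compares treated-well with vehicle-well nuclei as a median over plates, and plates needed control CV below 25% plus at least one doubling to pass.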

[2] = compound: CN(C)C[C@@H]1CCn2cc(c3ccccc32)C2=C(C(=O)NC2=O)c2cn(c3ccccc23)CCO1 [Ruboxistaurin] + CCNC(=O)c1noc(-c2cc(C(C)C)c(O)cc2O)c1-c1ccc(CN2CCOCC2)cc1 [Luminespib] (partner 0.01 µM)
How it was run: (§1)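 A single step with final 0.05% Triton X-100, 1% formaldehyde and 1 ug/ml Hoechst fixed the cells and stained nuclei 5 days after treatment. Lung cancer cell lines in 1536-well plates had been treated by pin tool the day after seeding with one drug alone or a fixed anchor-drug dose plus five library-drug doses (not always all listed) in √10 steps, and nuclei were counted on 4× images. Relative viability is the ratio of nuclei in treated wells to nuclei in vehicle wells, taken as the median of duplicate plates.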

[3] = compound: CN(C)C[C@@H]1CCn2cc(c3ccccc32)C2=C(C(=O)NC2=O)c2cn(c3ccccc23)CCO1 [Ruboxistaurin] + COc1cc2c(Oc3ccc(NC(=O)C4(C(=O)Nc5ccc(F)cc5)CC4)cc3F)ccnc2cc1OCCCN1CCOCC1 [Foretinib] (partner 0.25 µM)
How it was run: as §1

[4] = compound: CN(C)C[C@@H]1CCn2cc(c3ccccc32)C2=C(C(=O)NC2=O)c2cn(c3ccccc23)CCO1 [Ruboxistaurin] + COc1cccc2cc(-c3nc([C@H]4CC[C@H](C(=O)O)CC4)n4ncnc(N)c34)[nH]c12 [OSI-027] (partner 0.5 µM)
How it was run: as §1

[5] = compound: CN(C)C[C@@H]1CCn2cc(c3ccccc32)C2=C(C(=O)NC2=O)c2cn(c3ccccc23)CCO1 [Ruboxistaurin] + Cc1cc(Nc2cc(N3CCN(C)CC3)nc(Sc3ccc(NC(=O)C4CC4)cc3)n2)n[nH]1 [Tozasertib] (partner 0.1 µM)
How it was run: as §1

[6] = compound: CN(C)C[C@@H]1CCn2cc(c3ccccc32)C2=C(C(=O)NC2=O)c2cn(c3ccccc23)CCO1 [Ruboxistaurin] + Cc1nc(Nc2ncc(C(=O)Nc3c(C)cccc3Cl)s2)cc(N2CCN(CCO)CC2)n1 [Dasatinib] (partner 0.075 µM)
How it was run: as §1

[7] = compound: CN(C)C[C@@H]1CCn2cc(c3ccccc32)C2=C(C(=O)NC2=O)c2cn(c3ccccc23)CCO1 [Ruboxistaurin] + N=C(N)NC(=N)NCCc1ccccc1 [Phenformin] (partner 250 µM)
How it was run: as §1

[8] = compound: CN(C)C[C@@H]1CCn2cc(c3ccccc32)C2=C(C(=O)NC2=O)c2cn(c3ccccc23)CCO1 [Ruboxistaurin] + CC(=O)Nc1cccc(-n2c(=O)n(C3CC3)c(=O)c3c(Nc4ccc(I)cc4F)n(C)c(=O)c(C)c32)c1 [Trametinib] (partner 0.02 µM)
How it was run: as §1

[9] = compound: CN(C)C[C@@H]1CCn2cc(c3ccccc32)C2=C(C(=O)NC2=O)c2cn(c3ccccc23)CCO1 [Ruboxistaurin] + CC(=O)c1c(C)c2cnc(Nc3ccc(N4CCNCC4)cn3)nc2n(C2CCCC2)c1=O [Palbociclib] (partner 0.5 µM)
How it was run: as §1

[10] = compound: CN(C)C[C@@H]1CCn2cc(c3ccccc32)C2=C(C(=O)NC2=O)c2cn(c3ccccc23)CCO1 [Ruboxistaurin] + NC(=O)Nc1cc(-c2cccc(F)c2)sc1C(=O)N[C@H]1CCCNC1 [AZD7762] (partner 0.2 µM)
How it was run: as §1

[11] = compound: CN(C)C[C@@H]1CCn2cc(c3ccccc32)C2=C(C(=O)NC2=O)c2cn(c3ccccc23)CCO1 [Ruboxistaurin] + Nc1nc2[nH]cc(CCc3ccc(C(=O)N[C@@H](CCC(=O)O)C(=O)O)cc3)c2c(=O)[nH]1 [Pemetrexed] (partner 0.2 µM)
How it was run: as §1

[12] = compound: CN(C)C[C@@H]1CCn2cc(c3ccccc32)C2=C(C(=O)NC2=O)c2cn(c3ccccc23)CCO1 [Ruboxistaurin] + Nc1ncn([C@H]2C[C@H](O)[C@@H](CO)O2)c(=O)n1 [Decitabine] (partner 2 µM)
How it was run: as §1

[13] = compound: CN(C)C[C@@H]1CCn2cc(c3ccccc32)C2=C(C(=O)NC2=O)c2cn(c3ccccc23)CCO1 [Ruboxistaurin] + O=C(CCCCCCC(=O)Nc1ccccc1)NO [Vorinostat] (partner 1 µM)
How it was run: as §1

[14] = compound: CN(C)C[C@@H]1CCn2cc(c3ccccc32)C2=C(C(=O)NC2=O)c2cn(c3ccccc23)CCO1 [Ruboxistaurin] + O=C(c1cc(Cc2n[nH]c(=O)c3ccccc23)ccc1F)N1CCN(C(=O)C2CC2)CC1 [Olaparib] (partner 8 µM)
How it was run: as §1

NCI-H1623
relative viability ([1]; 0.08 µM): 1.03 | relative viability ([1]; 0.8 µM): 0.922 | relative viability ([1]; 2.53 µM): 1.01 | relative viability ([1]; 8 µM): 0.977 | relative viability ([2]; first compound 0.08 µM): 0.595 | relative viability ([2]; first compound 0.8 µM): 0.391 | relative viability ([2]; first compound 2.53 µM): 0.639 | relative viability ([2]; first compound 8 µM): 0.401 | relative viability ([3]; first compound 0.08 µM): 0.895 | relative viability ([3]; first compound 0.8 µM): 0.747 | relative viability ([3]; first compound 2.53 µM): 0.933 | relative viability ([3]; first compound 8 µM): 0.837 | relative viability ([4]; first compound 0.08 µM): 0.341 | relative viability ([4]; first compound 0.8 µM): 0.416 | relative viability ([4]; first compound 2.53 µM): 0.423 | relative viability ([4]; first compound 8 µM): 0.374 | relative viability ([5]; first compound 0.08 µM): 0.429 | relative viability ([5]; first compound 0.8 µM): 0.405 | relative viability ([5]; first compound 2.53 µM): 0.459 | relative viability ([5]; first compound 8 µM): 0.436 | relative viability ([6]; first compound 0.08 µM): 0.505 | relative viability ([6]; first compound 0.8 µM): 0.5 | relative viability ([6]; first compound 2.53 µM): 0.525 | relative viability ([6]; first compound 8 µM): 0.531 | relative viability ([7]; first compound 0.08 µM): 0.632 | relative viability ([7]; first compound 0.8 µM): 0.58 | relative viability ([7]; first compound 2.53 µM): 0.693 | relative viability ([7]; first compound 8 µM): 0.563

NCI-H1648
relative viability ([1]; 0.08 µM): 0.894 | relative viability ([1]; 0.8 µM): 0.966 | relative viability ([1]; 2.53 µM): 1.11 | relative viability ([1]; 8 µM): 1.15 | relative viability ([8]; first compound 0.08 µM): 0.643 | relative viability ([8]; first compound 0.8 µM): 0.53 | relative viability ([8]; first compound 2.53 µM): 0.455 | relative viability ([8]; first compound 8 µM): 0.681 | relative viability ([9]; first compound 0.08 µM): 0.248 | relative viability ([9]; first compound 0.8 µM): 0.254 | relative viability ([9]; first compound 2.53 µM): 0.285 | relative viability ([9]; first compound 8 µM): 0.247 | relative viability ([4]; first compound 0.08 µM): 0.246 | relative viability ([4]; first compound 0.8 µM): 0.278 | relative viability ([4]; first compound 2.53 µM): 0.291 | relative viability ([4]; first compound 8 µM): 0.274 | relative viability ([5]; first compound 0.08 µM): 0.439 | relative viability ([5]; first compound 0.8 µM): 0.438 | relative viability ([5]; first compound 2.53 µM): 0.482 | relative viability ([5]; first compound 8 µM): 0.792 | relative viability ([10]; first compound 0.08 µM): 0.621 | relative viability ([10]; first compound 0.8 µM): 0.591 | relative viability ([10]; first compound 2.53 µM): 0.835 | relative viability ([10]; first compound 8 µM): 0.865 | relative viability ([11]; first compound 0.08 µM): 0.699 | relative viability ([11]; first compound 0.8 µM): 0.717 | relative viability ([11]; first compound 2.53 µM): 0.612 | relative viability ([11]; first compound 8 µM): 0.894 | relative viability ([12]; first compound 0.08 µM): 0.514 | relative viability ([12]; first compound 0.8 µM): 0.501 | relative viability ([12]; first compound 2.53 µM): 0.44 | relative viability ([12]; first compound 8 µM): 0.536 | relative viability ([13]; first compound 0.08 µM): 0.622 | relative viability ([13]; first compound 0.8 µM): 0.433 | relative viability ([13]; first compound 2.53 µM): 0.425 | relative viability ([13]; first compound 8 µM): 0.634 | relative viability ([14]; first compound 0.08 µM): 1.33 | relative viability ([14]; first compound 0.8 µM): 0.64 | relative viability ([14]; first compound 2.53 µM): 0.797 | relative viability ([14]; first compound 8 µM): 1.22

Reference: the supplement of paper PMC10307832
